Assay results as given in patent publication US12691070B2, “Cationic lipids and preparation method thereof” (RiboX Therapeutics HK Limited, priority 2023, dated 2026).

What was measured:
[1] = LNP size and polydispersity index (PDI) by dynamic light scattering; assay type: physicochemical; conditions: LNP with cirRNA (SEQ ID NO: 1); for Size: in nm (unit assumed)
How it was run: (§1)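 Dynamic light scattering and zeta potential measurements were run on PBS-dialyzed LNPs, which had been formed by microfluidic mixing at 12 ml/min with final lipid at 1.5 mM to 6 mM. RNA content and percent encapsulation were determined by Ribogreen with and without Triton X-100.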

[2] = LNP zeta potential (Zetasizer); assay type: physicochemical; conditions: LNP with cirRNA (SEQ ID NO: 1)
How it was run: as §1

[3] = RNA encapsulation efficacy by Quant-IT Ribogreen kit; assay type: physicochemical; conditions: LNP with cirRNA (SEQ ID NO: 1)
How it was run: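 Encapsulation efficacy came from Ribogreen fluorescence of LNPs compared with Triton X-100-lysed LNPs. The particles carried luciferase-encoding circular or linear RNA at an ionizable lipid:ribonucleotide ratio of 15 or 6.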

Hep G2 cells [4] = experiment: In vitro expression of firefly-luciferase, Hep G2; assay type: cell-based; conditions: cirRNA (SEQ ID NO: 1) LNPs; firefly-luciferase luminescence; Hep G2 cells
How it was run: (§2)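 Transfection used 100 ng/mL luciferase-encoding RNA-LNPs; activity in lysates was determined at 72 h.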

RAW 264.7 cells [5] = experiment: In vitro expression of firefly-luciferase, RAW 264.7; assay type: cell-based; conditions: cirRNA (SEQ ID NO: 1) LNPs; firefly-luciferase luminescence; RAW 264.7 cells
How it was run: as §2

Hep G2 cells [6] = experiment: In vitro toxicity (CellTiter-Glo cell viability), Hep G2; assay type: cell-based; conditions: cirRNA (SEQ ID NO: 1) LNPs; Hep G2 cells;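 note: percent of untreated cells luminescence signal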
How it was run: (§3)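 Toxicity of RNA-LNPs (1 μg/mL) is reported as cell viability, calculated from CellTiter-Glo luminescence measured at 72 hours after transfection.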

RAW 264.7 cells [7] = experiment: In vitro toxicity (CellTiter-Glo cell viability), RAW 264.7; assay type: cell-based; conditions: cirRNA (SEQ ID NO: 1) LNPs; RAW 264.7 cells;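 note: percent of untreated cells luminescence signal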
How it was run: as §3

BALB/C mice = experiment: In vivo expression, whole-body luminescence (IVIS); conditions: cirRNA (SEQ ID NO: 1) LNPs, BALB/C mice
Description: 6-8 week old, female BALB/C mice were injected with 0.05 mg*kg-1 of RNA-LNPs encoding for firefly-luciferase by intravenous injection. At 6 hours post injection, animals were intraperitoneally injected with 15 mg/ml of Luciferin substrate and whole-body luminescence was determined by a bioluminescent in vivo imaging system (IVIS).

SMILES | PDI [1] | Size [1] | Zeta (mV) [2] [mV] | Encapsulation Efficiency % [3] [%] | In vitro Expression HepG2 (Hep G2 cells [4]) | In vitro Expression RAW (RAW 264.7 cells [5]) | In vitro Viability HepG2 (Hep G2 cells [6]) [%] | In vitro Viability RAW (RAW 264.7 cells [7]) [%] | In vivo Expression (Whole Body) (BALB/C mice)
CCCCCCCCCCCOC(=O)CCCCCN(CCCCCCCC(=O)OC(CCCCCCCC)CCCCCCCC)CCOC(=O)NCc1ncc[nH]1 [Lipid 159, heptadecan-9-yl 8-((2-((((1H-imidazol-2-yl)methyl)carbamoyl)oxy)ethyl)(6-oxo-6-(undecyloxy)hexyl)amino)octanoate] | 0.1754 | 57.86 | −5.631 | 84 | 8.41E+05 | 4.41E+04 | 92 | 90 | 1.95E+07
CCCCCCCCCCCOC(=O)CCCCCN(CCCCCCCC(=O)OC(CCCCCCCC)CCCCCCCC)CCOC(=O)NCCN1CCOCC1 [Lipid 161] | 0.08727 | 58.97 | −10.23 | 75 | 4.62E+04 | 6.74E+03 | 95 | 81 | 1.88E+07
CCCCCCCCCCCOC(=O)CCCCCN(CCCCCCCC(=O)OC(CCCCCCCC)CCCCCCCC)CCOC(=O)NCCCN(C)C [Lipid 162] | 0.3875 | 86.23 | 14.91 | 76 | 4.27E+05 | 3.76E+03 | 83 | 86 | 1.01E+06

Further lines, with some results ahead:

PDI [1] | Size [1] | Zeta (mV) [2] [mV] | Encapsulation Efficiency % [3] [%] | SMILES | In vitro Expression HepG2 (Hep G2 cells [4]) | In vitro Expression RAW (RAW 264.7 cells [5]) | In vitro Viability HepG2 (Hep G2 cells [6]) [%] | In vitro Viability RAW (RAW 264.7 cells [7]) [%] | In vivo Expression (Whole Body) (BALB/C mice)
0.1586 | 61.87 | −3.271 | 79 | CCCCCCCCCCCOC(=O)CCCCCN(CCCCCCCC(=O)OC(CCCCCCCC)CCCCCCCC)CCOC(=O)NCCCn1ccnc1 [Lipid 163] | 5.77E+04 | 3.32E+03 | 92 | 88 | 7.96E+06
0.2218 | 76.41 | 3.42 | 75 | CCCCCCCCCCCOC(=O)CCCCCN(CCCCCCCC(=O)OC(CCCCCCCC)CCCCCCCC)CCOC(=O)NCCN1CCCC1 [Lipid 164] | 3.92E+06 | 9.56E+04 | 74 | 86 | 7.11E+07
0.2013 | 71.24 | 4.157 | 78 | CCCCCCCCCCC(CCCCCCCC)COC(=O)CCCCCN(CCCCCC(=O)OCC(CCCCCCCC)CCCCCCCCCC)CCOC(=O)NCCCN(C)C (stereo not drawn) [Lipid 166] | 2.17E+07 | 1.48E+06 | 22 | 12 | 6.43E+05
0.0668 | 61.26 | −3.412 | 82 | CCCCCCCCCCC(CCCCCCCC)COC(=O)CCCCCN(CCCCCC(=O)OCC(CCCCCCCC)CCCCCCCCCC)CCOC(=O)NCCCn1ccnc1 (stereo not drawn) [Lipid 167] | 8.85E+04 | 2.79E+04 | 102 | 90 | 9.22E+06
0.1297 | 55.9 | −5.824 | 77 | CCCCCCCCCCC(CCCCCCCC)COC(=O)CCCCCN(CCCCCC(=O)OCC(CCCCCCCC)CCCCCCCCCC)CCOC(=O)NCc1ncc[nH]1 (stereo not drawn) [Lipid 171] | 3.04E+05 | 2.44E+05 | 97 | 88 | 5.09E+07
